According to patent US8071587B2, “(Dihydro)imidazoiso[5,1-A]quinolines” (N. V. Organon, priority 2009, dated 2011):
Structures can show the parent of a compound that is named as a salt.

test system: not given; assay: not given; conditions: not given

SMILES | melting point [°C]
COc1cc2ccn3c(C(=O)N(C)C(C)(C)C)nc(-c4cccs4)c3c2cc1-c1cnn(C)c1 [Example 17b, 8-Methoxy-9-(1-methyl-1H-pyrazol-4-yl)-1-thiophen-2-yl-imidazo[5,1-a]isoquinoline-3-carboxylic acid tert-butyl-methyl-amide] | 239 to 241
COc1cc2c(cc1NC(=O)c1nccs1)-c1c(-c3cccs3)nc(C(=O)N(C)C(C)(C)C)n1CC2 [Example 10, 8-Methoxy-9-[(thiazole-2-carbonyl)-amino]-1-thiophen-2-yl-5,6-dihydro-imidazo[5,1-a]isoquinoline-3-carboxylic acid tert-butyl-methyl-amide] | 185 to 186
COc1cc2c(cc1-c1cccc(NC(C)=O)c1)-c1c(-c3cccs3)nc(C(=O)N(C)C(C)(C)C)n1CC2 [Example 2f, 9-(3-Acetylamino-phenyl)-8-methoxy-1-thiophen-2-yl-5,6-dihydro-imidazo[5,1-a]isoquinoline-3-carboxylic acid tert-butyl-methyl-amide] | 123
COc1cc2c(cc1Oc1ccccc1)-c1c(-c3cccs3)nc(C(=O)N(C)C(C)(C)C)n1CC2 [Example 42b, 8-Methoxy-9-phenoxy-1-thiophen-2-yl-5,6-dihydro-imidazo[5,1-a]isoquinoline-3-carboxylic acid tert-butyl-methyl-amide] | 122 to 126
CCc1nnc(NC(=O)c2cc3c(cc2OC)CCn2c(C(=O)N(C)C(C)(C)C)nc(-c4cccs4)c2-3)s1 [Example 4, 8-Methoxy-1-thiophen-2-yl-5,6-dihydro-imidazo[5,1-a]isoquinoline-3,9-dicarboxylic acid 3-(tert-butyl-methyl-amide) 9-[(5-ethyl-[1,3,4]thiadiazol-2-yl)-amide]] | 238 to 240
COc1cc2c(cc1C(=O)Nc1nncs1)-c1c(-c3cccs3)nc(C(=O)N(C)C(C)(C)C)n1CC2 [Example 3e, 8-Methoxy-1-thiophen-2-yl-5,6-dihydro-imidazo[5,1-a]isoquinoline-3,9-dicarboxylic acid 3-(tert-butyl-methyl-amide) 9-[1,3,4]thiadiazol-2-ylamide] | 154 to 156
COc1cc2c(cc1OC(C)C)-c1c(-c3cncs3)nc(C(=O)N(C)C(C)(C)C)n1CC2 [Example 47e, 9-Isopropoxy-8-methoxy-1-thiazol-5-yl-5,6-dihydro-imidazo[5,1-a]isoquinoline-3-carboxylic acid tert-butyl-methyl-amide] | 112 to 114
C=CCN1CCN(C(=O)c2nc(-c3cccs3)c3n2CCc2cc(OC)c(OC(C)C)cc2-3)CCC1=O (as salt: salt) [Example 28, 4-Allyl-1-(9-isopropoxy-8-methoxy-1-thiophen-2-yl-5,6-dihydro-imidazo[5,1-a]isoquinoline-3-carbonyl)-[1,4]diazepan-5-one] | 115 to 117
COc1cc2ccn3c(C(=O)N(C)C(C)(C)C)nc(-c4cccs4)c3c2cc1OC(C)C [Example 15j, 9-Isopropoxy-8-methoxy-1-thiophen-2-yl-imidazo[5,1-a]isoquinoline-3-carboxylic acid tert-butyl-methyl-amide] | 163 to 164

Next, values leading:

melting point [°C] | SMILES
149 | COc1cc2c(cc1-c1cccc(N(C)C)c1)-c1c(-c3cccs3)nc(C(=O)N(C)C(C)(C)C)n1CC2 [Example 2l, 9-(3-Dimethylamino-phenyl)-8-methoxy-1-thiophen-2-yl-5,6-dihydro-imidazo[5,1-a]isoquinoline-3-carboxylic acid tert-butyl-methyl-amide]
124 | COc1cc2c(cc1CC(C)C)-c1c(-c3cccs3)nc(C(=O)N(C)C(C)(C)C)n1CC2 [Example 18k, 9-Isobutyl-8-methoxy-1-thiophen-2-yl-5,6-dihydro-imidazo[5,1-a]isoquinoline-3-carboxylic acid tert-butyl-methyl-amide]
140 to 143 | COc1cc2c(cc1CCC(C)(C)O)-c1c(-c3cccs3)nc(C(=O)N(C)C(C)(C)C)n1CC2 [Example 41c, 9-(3-Hydroxy-3-methyl-butyl)-8-methoxy-1-thiophen-2-yl-5,6-dihydro-imidazo[5,1-a]isoquinoline-3-carboxylic acid tert-butyl-methyl-amide]
141 to 142 | COc1cc2c(c(F)c1CC(C)C)-c1c(-c3cccs3)nc(C(=O)N(C)C(C)(C)C)n1CC2 [Example 48j, 10-Fluoro-9-isobutyl-8-methoxy-1-thiophen-2-yl-5,6-dihydro-imidazo[5,1-a]isoquinoline-3-carboxylic acid tert-butyl-methyl-amide]
161 to 162 | COc1cc2c(cc1-c1cccc(F)n1)-c1c(-c3cccs3)nc(C(=O)N(C)C(C)(C)C)n1CC2 [Example 2c, 9-(6-Fluoro-pyridin-2-yl)-8-methoxy-1-thiophen-2-yl-5,6-dihydro-imidazo[5,1-a]isoquinoline-3-carboxylic acid tert-butyl-methyl-amide]
183 to 184 | COc1cc2c(cc1-c1c(C)noc1C)-c1c(-c3cccs3)nc(C(=O)N(C)C(C)(C)C)n1CC2 [Example 2m, 9-(3,5-Dimethyl-isoxazol-4-yl)-8-methoxy-1-thiophen-2-yl-5,6-dihydro-imidazo[5,1-a]isoquinoline-3-carboxylic acid tert-butyl-methyl-amide]
147 to 148 | COc1cc2c(cc1CC(C)C)-c1c(-c3ncco3)nc(C(=O)N(C)C(C)(C)C)n1CC2 [Example 37f, 9-Isobutyl-8-methoxy-1-oxazol-2-yl-5,6-dihydro-imidazo[5,1-a]isoquinoline-3-carboxylic acid tert-butyl-methyl-amide]

target: T1, human FSH receptor (Homo sapiens, UniProt P23945); assay: Agonistic activity at the human FSH receptor expressed in CHO cells, CRE-luciferase reporter (hFSHRago CHO luc); type: cell-based; conditions: CHO cells stably transfected with human FSH receptor and CRE/luciferase reporter; 4 hours of incubation
T1 construct: expressed in transfected cells; host or cells: Chinese Hamster Ovary (CHO) cells, stably transfected, cotransfected with a CRE/promoter-firefly luciferase reporter
T1 sequence (P23945 18-695): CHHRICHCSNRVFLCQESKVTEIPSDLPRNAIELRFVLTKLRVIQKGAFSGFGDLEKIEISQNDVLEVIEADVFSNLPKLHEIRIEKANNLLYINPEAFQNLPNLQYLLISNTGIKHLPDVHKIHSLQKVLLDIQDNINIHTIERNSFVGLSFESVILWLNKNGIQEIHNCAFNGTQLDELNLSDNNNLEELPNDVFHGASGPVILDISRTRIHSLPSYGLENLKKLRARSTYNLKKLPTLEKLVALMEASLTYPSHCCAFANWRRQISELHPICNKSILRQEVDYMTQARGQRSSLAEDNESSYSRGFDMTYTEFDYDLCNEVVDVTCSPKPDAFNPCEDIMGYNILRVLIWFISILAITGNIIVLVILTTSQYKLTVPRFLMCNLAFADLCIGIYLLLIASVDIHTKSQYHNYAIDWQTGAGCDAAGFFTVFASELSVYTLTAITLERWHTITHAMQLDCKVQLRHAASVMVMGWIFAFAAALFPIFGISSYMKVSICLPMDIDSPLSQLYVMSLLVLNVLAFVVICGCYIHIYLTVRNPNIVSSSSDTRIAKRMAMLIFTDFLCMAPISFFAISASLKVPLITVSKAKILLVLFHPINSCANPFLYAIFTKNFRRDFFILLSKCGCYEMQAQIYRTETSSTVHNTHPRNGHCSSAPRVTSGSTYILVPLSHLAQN
Description: The term EC50 means the concentration of the test compound that elicits half-maximal (50%) stimulation compared to the compound's maximally attainable effect. The values can be determined e.g. in a cell line transfected with a FSH receptor gene and cotransfected with a cAMP responsive element/promoter directing the expression of a reporter gene. Values can be determined using a software program such as MathIQ (version 2.0, ID Business Solutions Limited). Agonistic Activity of Compounds at the Human FSH Receptor Expressed in CHO Cells Agonistic activity of the compounds at the human FSH receptor was determined in Chinese Hamster Ovary (CHO) cells stably transfected with the human FSH receptor and cotransfected with a cAMP responsive element (CRE)/promotor directing the expression of a firefly luciferase reporter gene. Binding of the compounds to the Gs protein-coupled FSH receptor will result in an increase of cAMP, which in turn will induce an increased transactivation of the luciferase reporter. Cells (7,500 cells/well of a 384 well plate) were incubated in Dulbecco' minimal essential F12 modified medium (Invitrogen), supplemented with 1 μg/ml bovine insulin, 5 μg/ml human apo-transferrin, 80 U/ml penicillin G and 80 μg/ml streptomycin with the test compounds (concentration between 0.0316 nM and 10.0 μM) in duplicate in a humidified atmosphere (95%) at 5-7% CO2 and 37° C. The final concentration of DMSO was 1%. After 4 hours of incubation, plates were allowed to adjust to room temperature for 1 hour. Then, Luclite (PerkinElmer) solution was added to the wells and cells were allowed to lyse for at least 1 hour at room temperature. Subsequently, luciferase activity was measured in a luminescence counter. The signal is expressed as counts per second (cps). The EC50 (concentration of the test compound that elicits half-maximal (50%) luciferase stimulation compared to the compound's maximally attainable effect) and efficacy values (maximal effect of the test compound as percentage of the maximal effect of recombinant human FSH) of the compounds were determined using the software program MathIQ (version 2.0, ID Business Solutions Limited). EC50 data are indicated at the synthesis examples.

EC50 [nM] | SMILES
1 | COC1=CC2CCn3c(C(=O)N(C)C(C)(C)C)nc(-c4cccs4)c3C2C=C1c1cccnc1 (stereo not drawn) [Example 2a, 8-Methoxy-9-pyridin-3-yl-1-thiophen-2-yl-5,6,6a,10a-tetrahydro-imidazo[5,1-a]isoquinoline-3-carboxylic acid tert-butyl-methyl-amide]
5 | CCn1nnc(-c2cc3c(cc2OC)CCn2c(C(=O)N(C)C(C)(C)C)nc(-c4cccs4)c2-3)n1 [Example 51c, 9-(2-Ethyltetrazol-5-yl-)-8-methoxy-1-thiophen-2-yl-5,6-dihydro-imidazo[5,1-a]isoquinoline-3-carboxylic acid tert-butyl-methyl-amide]
3 | C=CCN1CCN(C(=O)c2nc(-c3cccs3)c3n2CCc2cc(OC)c(OC(C)C)cc2-3)CCC1=O [Example 28, 4-Allyl-1-(9-isopropoxy-8-methoxy-1-thiophen-2-yl-5,6-dihydro-imidazo[5,1-a]isoquinoline-3-carbonyl)-[1,4]diazepan-5-one]
6.5 | COc1cc2ccn3c(C(=O)N(C)C(C)(C)C)nc(-c4cccs4)c3c2cc1OC(C)C [Example 15j, 9-Isopropoxy-8-methoxy-1-thiophen-2-yl-imidazo[5,1-a]isoquinoline-3-carboxylic acid tert-butyl-methyl-amide]

SMILES | EC50 [nM]
CCCCN1CCN(C(=O)c2nc(-c3cccs3)c3n2CCc2cc(OC)c(OC(C)C)cc2-3)CCC1=O [Example 27b, 4-Butyl-1-(9-isopropoxy-8-methoxy-1-thiophen-2-yl-5,6-dihydro-imidazo[5,1-a]isoquinoline-3-carbonyl)-[1,4]diazepan-5-one] | 0.6
